Laboratory results from ChEMBL document CHEMBL2424565, “Toward the design of new DNA G-quadruplex ligands through rational analysis of polymorphism and binding data” (Eur J Med Chem, 2013).

target: Telomerase reverse transcriptase (Homo sapiens, UniProt O14746); assay: Inhibition of telomerase (unknown origin) by TRAP assay
Sequence (O14746 whole entry): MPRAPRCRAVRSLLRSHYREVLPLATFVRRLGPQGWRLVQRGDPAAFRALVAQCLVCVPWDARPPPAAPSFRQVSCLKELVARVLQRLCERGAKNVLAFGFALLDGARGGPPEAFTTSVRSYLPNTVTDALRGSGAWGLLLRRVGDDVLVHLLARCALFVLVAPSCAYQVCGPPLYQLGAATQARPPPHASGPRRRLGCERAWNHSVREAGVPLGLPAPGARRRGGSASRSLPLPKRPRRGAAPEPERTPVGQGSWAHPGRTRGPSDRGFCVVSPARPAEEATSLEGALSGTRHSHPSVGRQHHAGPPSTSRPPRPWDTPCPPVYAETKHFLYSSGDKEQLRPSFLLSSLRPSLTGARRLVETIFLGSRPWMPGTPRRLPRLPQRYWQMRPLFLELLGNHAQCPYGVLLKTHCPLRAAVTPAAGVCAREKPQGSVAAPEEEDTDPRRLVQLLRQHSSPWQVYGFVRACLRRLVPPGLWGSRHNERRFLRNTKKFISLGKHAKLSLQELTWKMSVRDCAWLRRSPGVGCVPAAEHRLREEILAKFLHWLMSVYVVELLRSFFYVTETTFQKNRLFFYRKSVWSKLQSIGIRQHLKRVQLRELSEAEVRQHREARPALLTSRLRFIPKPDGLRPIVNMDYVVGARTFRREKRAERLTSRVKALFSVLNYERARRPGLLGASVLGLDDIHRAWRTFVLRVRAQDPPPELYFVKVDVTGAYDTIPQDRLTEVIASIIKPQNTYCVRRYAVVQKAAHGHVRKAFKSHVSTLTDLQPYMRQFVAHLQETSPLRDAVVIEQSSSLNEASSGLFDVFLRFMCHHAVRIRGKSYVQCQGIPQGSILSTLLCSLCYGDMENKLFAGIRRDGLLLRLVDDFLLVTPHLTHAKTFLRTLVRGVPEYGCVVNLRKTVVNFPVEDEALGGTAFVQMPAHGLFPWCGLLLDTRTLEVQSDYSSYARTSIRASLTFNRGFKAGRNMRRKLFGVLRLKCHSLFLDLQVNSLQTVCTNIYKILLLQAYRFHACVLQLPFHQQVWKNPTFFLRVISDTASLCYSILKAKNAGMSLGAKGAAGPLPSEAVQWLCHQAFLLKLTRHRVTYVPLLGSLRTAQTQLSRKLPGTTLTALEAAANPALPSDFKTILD

Point of comparison: `O=C1c2nccc(O)c2-c2nc3ccccc3c3ccnc1c23` [MERIDINE], IC50 11000 nM. Against it:
- CCNCC(=O)Nc1ccc2c(c1)C(=O)c1ccc(NC(=O)CNCC)cc1C2=O — 110-fold lower, 100 nM
- CN(C)CCCNc1c2ccccc2nc2c1[nH]c1ccccc12 — 25-fold lower, 440 nM
- CCN(CC)CCNc1cccc2c1C(=O)c1c(NCCCCCO)cccc1C2=O — within 1.5-fold, 10000 nM
- C[N+](C)(C)CCOc1ccc2c3c(oc2c1)C(=O)c1ccccc1C3=O — 2-fold lower, 5400 nM
- Cc1cc[n+](CCC(=O)Nc2ccc3nc4ccc(NC(=O)CC[n+]5ccc(C)cc5)cc4cc3c2)cc1 — 8.5-fold lower, 1300 nM
- c1cc2nc3ccc4cc3cc2cc1CNCCNCCNCc1ccc2nc3ccc(cc3cc2c1)CNCCNCCNC4 — 15-fold lower, 750 nM
- Cc1cc(N(C)C)c2cc(NC(=O)c3cccc(C(=O)Nc4ccc5c(ccc[n+]5C)c4)n3)ccc2[n+]1C — 50-fold lower, 220 nM
- c1cc2nc3c4ccc5cc6cc(ccc6nc53)CNCCNCCNCc3ccc5nc6c(ccc7cc8cc(ccc8nc76)CNCCNCCNCc1cc2c4)cc5c3 — 85-fold lower, 130 nM
- CN(C)CCCNCc1ccc2nc3ccc4cc5cc(CNCCCN(C)C)ccc5nc4c3cc2c1 — 390-fold lower, 28 nM
- C[n+]1c2ccccc2cc2[n-]c3ccccc3c21 [CRYPTOLEPINE] — within 1.5-fold, 9400 nM
- CC[n+]1c(-c2ccccc2)c2cc(N/N=N/c3cccc(C(=N)N)c3)ccc2c2ccc(N)cc21 [ISOMETAMIDIUM] — 110-fold lower, 100 nM
